Assay [1] relates to HeLa. In words: Cytotoxicity counterscreen assay for transcriptional activators of heat shock protein 70 (Hsp70). [Related pubchem assays: 1203, 1252 ]. It is filed as functional. To be noted: Homo sapiens.
Assay [2] addresses Glyceraldehyde-3-phosphate dehydrogenase (Homo sapiens, UniProt P04406).
Assay [3] concerns the target T1, Bcl-2-related protein A1 (Mus musculus, UniProt Q07440).
T1 sequence (Q07440 whole entry): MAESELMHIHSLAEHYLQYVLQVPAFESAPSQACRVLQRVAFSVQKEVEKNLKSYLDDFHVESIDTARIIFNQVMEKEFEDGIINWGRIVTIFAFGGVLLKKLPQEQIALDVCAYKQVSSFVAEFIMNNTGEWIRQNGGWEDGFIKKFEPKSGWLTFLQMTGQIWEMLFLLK
In words: small-molecule antagonists of Bfl-1/BH3 interaction – biochemical, TR-FRET, mouse Bfl-1, confirmation (AID 621).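 Further: TR-FRET binding of GST-Bfl-1 to FITC-labelled Bid peptide via terbium antibody.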

The target in assay [4] is T1, Bcl-2-related protein A1. In words: Bfl-1 binding inhibitors, SAR follow-up, biochemical, fluorescence polarization (AID 1070). On the technique in general: Polarisation of emitted light reports the rotation of a fluorescent probe.
Assay [5] concerns the target Inward rectifier potassium channel 2 (Mus musculus, UniProt P35561). In words: Manual electrophysiological patch clamp assay for SAR compounds that inhibit/block inward-rectifying potassium ion channel Kir2.1. [Related pubchem assays: 1843 (Summary assay for Kir2.1 inhibitor assays.), 1672 (Primary HTS of 305616 compounds where 2592 were identified as active.)]. It is filed as functional. On the technique in general: Patch clamp records ionic current or voltage across a cell membrane.

The target in assay [6] is T2, Aminopeptidase N (Plasmodium falciparum FcB1/Columbia, UniProt O96935).
T2 sequence (O96935 whole entry): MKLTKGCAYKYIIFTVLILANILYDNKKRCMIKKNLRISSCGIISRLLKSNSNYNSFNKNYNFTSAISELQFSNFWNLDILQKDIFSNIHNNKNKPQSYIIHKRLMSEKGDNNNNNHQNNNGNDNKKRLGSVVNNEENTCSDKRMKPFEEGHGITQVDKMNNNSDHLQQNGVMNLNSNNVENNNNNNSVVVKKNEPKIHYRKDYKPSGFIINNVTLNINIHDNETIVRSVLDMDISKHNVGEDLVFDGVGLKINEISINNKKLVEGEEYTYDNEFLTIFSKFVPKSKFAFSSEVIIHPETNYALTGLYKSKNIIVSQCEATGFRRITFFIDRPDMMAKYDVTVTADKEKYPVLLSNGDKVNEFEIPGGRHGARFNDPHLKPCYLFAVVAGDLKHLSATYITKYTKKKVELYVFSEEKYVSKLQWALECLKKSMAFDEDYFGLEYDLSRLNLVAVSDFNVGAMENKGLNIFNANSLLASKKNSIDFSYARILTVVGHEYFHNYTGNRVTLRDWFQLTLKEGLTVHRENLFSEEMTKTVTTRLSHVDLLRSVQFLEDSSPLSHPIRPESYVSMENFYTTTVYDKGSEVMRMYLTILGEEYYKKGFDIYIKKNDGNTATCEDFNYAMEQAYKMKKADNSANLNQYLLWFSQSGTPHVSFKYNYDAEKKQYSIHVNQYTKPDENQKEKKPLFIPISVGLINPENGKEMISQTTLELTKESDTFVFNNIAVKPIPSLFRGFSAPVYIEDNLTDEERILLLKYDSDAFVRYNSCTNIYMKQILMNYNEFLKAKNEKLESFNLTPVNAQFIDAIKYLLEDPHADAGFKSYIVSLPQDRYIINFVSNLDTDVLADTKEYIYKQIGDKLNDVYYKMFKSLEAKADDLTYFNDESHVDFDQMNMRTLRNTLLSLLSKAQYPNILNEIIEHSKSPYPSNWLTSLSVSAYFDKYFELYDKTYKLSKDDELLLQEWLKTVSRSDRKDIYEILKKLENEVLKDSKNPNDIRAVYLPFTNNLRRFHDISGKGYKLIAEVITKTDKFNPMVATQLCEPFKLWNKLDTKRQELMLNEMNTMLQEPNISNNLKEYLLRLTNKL
In words: malaria alanyl aminopeptidase activity blockers – biochemical, fluorogenic H-Leu-NHMec substrate, 1536-well (AID 1445). Further details: species or system Plasmodium falciparum 3D7, 3D7.

Assay [7] is described as follows: CCR5-tropic HIV-1 fusion blockers – cell-based, CCR5-tropic Env, dose response (AID 2279). It is filed as functional.
Assay [8] has as its target T3, Calpain-2 catalytic subunit (Sus scrofa, UniProt P43367).
T3 sequence (P43367 whole entry): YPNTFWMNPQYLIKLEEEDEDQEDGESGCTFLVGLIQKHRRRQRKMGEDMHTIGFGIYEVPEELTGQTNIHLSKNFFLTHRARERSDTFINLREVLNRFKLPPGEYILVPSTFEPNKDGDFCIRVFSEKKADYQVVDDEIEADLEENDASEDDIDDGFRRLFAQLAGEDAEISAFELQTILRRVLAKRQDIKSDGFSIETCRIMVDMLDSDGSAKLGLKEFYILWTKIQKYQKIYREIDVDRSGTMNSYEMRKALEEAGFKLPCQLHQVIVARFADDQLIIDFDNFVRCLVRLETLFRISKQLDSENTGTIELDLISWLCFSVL
In words: m-calpain protease blockers, concentration series – biochemical, fluorogenic peptide substrate, dose response (AID 1420). It is filed as functional.

For assay [9], the target named is Induced myeloid leukemia cell differentiation protein Mcl-1 (Homo sapiens, UniProt Q07820). It is filed as functional.
Induced myeloid leukemia cell differentiation protein Mcl-1, sequence (Q07820 whole entry): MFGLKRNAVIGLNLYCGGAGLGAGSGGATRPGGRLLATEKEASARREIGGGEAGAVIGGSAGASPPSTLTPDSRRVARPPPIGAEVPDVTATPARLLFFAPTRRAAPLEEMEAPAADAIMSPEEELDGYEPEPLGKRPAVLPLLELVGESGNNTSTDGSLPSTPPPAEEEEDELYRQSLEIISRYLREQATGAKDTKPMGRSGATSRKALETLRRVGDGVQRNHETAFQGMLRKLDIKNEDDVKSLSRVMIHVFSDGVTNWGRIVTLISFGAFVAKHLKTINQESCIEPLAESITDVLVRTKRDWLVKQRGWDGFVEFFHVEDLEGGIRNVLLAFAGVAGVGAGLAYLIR
The target of assay [10] is Large T antigen (Simian virus 40, UniProt P03070). It is filed as functional, Betapolyomavirus macacae.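 Further: Confirmatory-stage PubChem screen for compounds that inhibit SV40 T antigen.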
Large T antigen, sequence (P03070 whole entry): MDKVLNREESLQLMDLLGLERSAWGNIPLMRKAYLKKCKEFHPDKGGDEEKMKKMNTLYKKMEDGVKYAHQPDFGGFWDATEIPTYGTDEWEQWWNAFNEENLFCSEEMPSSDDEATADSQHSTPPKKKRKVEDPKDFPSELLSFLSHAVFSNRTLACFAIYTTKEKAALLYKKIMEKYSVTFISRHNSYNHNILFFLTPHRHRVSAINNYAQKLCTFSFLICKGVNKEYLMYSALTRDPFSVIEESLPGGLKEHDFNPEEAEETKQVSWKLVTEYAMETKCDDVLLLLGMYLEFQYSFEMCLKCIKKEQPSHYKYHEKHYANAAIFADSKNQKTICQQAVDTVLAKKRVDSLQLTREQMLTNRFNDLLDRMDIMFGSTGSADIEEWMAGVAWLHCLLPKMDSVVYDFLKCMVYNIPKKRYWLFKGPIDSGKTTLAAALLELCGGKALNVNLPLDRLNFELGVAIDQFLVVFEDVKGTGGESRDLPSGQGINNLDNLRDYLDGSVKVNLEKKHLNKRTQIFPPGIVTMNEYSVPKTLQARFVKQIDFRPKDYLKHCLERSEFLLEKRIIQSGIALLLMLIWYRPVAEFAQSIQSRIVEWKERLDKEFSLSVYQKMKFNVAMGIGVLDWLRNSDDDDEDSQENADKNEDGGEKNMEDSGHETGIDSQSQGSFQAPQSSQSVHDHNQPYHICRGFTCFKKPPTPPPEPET
The target of assay [11] is Estrogen receptor beta (Homo sapiens, UniProt Q92731). In words: blockers of SRC-3 recruitment to ERβ – biochemical, ELISA, streptavidin-HRP readout, orthogonal assay, confirmation (AID 1060). In general terms: In an ELISA, binding on a coated surface is turned into a signal by an enzyme label.
Estrogen receptor beta, sequence (Q92731 whole entry): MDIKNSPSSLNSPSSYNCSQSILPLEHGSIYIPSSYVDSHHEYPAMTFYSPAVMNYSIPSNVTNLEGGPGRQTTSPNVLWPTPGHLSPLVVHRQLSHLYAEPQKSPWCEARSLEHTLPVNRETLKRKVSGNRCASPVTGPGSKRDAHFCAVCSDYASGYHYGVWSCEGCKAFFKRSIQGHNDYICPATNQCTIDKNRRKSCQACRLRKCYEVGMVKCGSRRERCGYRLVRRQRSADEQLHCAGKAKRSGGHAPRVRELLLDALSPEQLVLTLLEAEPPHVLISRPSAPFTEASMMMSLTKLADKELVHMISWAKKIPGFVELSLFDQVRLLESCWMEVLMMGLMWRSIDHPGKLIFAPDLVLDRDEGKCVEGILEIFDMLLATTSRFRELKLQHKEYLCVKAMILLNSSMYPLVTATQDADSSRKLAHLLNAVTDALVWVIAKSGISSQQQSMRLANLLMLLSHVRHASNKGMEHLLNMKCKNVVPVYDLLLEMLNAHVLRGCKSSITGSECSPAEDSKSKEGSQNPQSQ
The nature of assay [12]: HPDE-C7 pancreatic duct cell viability loss – fluorescence, HTS (AID 430). It is filed as functional, cell-based. Conditions: Homo sapiens.
Assay [13] can be described thus: viability loss of HPDE-C7K cells – cell-based, fluorescence, HTS, primary screen (AID 431). Conditions: Homo sapiens. It is filed as functional.
In assay [14] the target is Photoreceptor-specific nuclear receptor (Homo sapiens, UniProt Q9Y5X4). It is filed as functional.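 Further: potency for compounds that break the NR2E3 corepressor complex and count as activators.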
Assay [15] has as its target NS3 (Hepatitis C virus, UniProt A3EZJ3). In words: PubChem AID 2173. Details: species or system Hepacivirus hominis.
Assay [16] has as its target Peroxisome proliferator-activated receptor gamma/Nuclear receptor corepressor 2 (Homo sapiens, UniProt P37231+Q9Y618). It is filed as functional.
The target in assay [17] is Peroxisome proliferator-activated receptor gamma/Nuclear receptor coactivator 2 (Homo sapiens, UniProt P37231). It is filed as functional.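 Further: agonist potency for raising coactivator recruitment to the receptor.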
Peroxisome proliferator-activated receptor gamma/Nuclear receptor coactivator 2, sequence (P37231 whole entry): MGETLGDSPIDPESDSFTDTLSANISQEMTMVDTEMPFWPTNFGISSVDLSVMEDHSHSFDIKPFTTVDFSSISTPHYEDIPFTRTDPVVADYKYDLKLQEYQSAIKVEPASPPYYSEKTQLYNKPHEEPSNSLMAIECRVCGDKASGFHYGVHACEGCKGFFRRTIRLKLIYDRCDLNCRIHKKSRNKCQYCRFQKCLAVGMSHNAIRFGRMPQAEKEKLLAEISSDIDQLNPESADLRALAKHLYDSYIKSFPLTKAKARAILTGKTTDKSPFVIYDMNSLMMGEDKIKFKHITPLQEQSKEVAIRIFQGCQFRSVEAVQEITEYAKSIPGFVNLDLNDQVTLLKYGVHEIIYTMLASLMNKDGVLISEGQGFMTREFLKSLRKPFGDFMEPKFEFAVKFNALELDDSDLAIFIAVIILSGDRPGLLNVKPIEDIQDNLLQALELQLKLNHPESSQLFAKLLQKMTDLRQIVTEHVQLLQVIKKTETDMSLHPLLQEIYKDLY
Peroxisome proliferator-activated receptor gamma/Nuclear receptor coactivator 2, sequence (Q15596 whole entry, further chain): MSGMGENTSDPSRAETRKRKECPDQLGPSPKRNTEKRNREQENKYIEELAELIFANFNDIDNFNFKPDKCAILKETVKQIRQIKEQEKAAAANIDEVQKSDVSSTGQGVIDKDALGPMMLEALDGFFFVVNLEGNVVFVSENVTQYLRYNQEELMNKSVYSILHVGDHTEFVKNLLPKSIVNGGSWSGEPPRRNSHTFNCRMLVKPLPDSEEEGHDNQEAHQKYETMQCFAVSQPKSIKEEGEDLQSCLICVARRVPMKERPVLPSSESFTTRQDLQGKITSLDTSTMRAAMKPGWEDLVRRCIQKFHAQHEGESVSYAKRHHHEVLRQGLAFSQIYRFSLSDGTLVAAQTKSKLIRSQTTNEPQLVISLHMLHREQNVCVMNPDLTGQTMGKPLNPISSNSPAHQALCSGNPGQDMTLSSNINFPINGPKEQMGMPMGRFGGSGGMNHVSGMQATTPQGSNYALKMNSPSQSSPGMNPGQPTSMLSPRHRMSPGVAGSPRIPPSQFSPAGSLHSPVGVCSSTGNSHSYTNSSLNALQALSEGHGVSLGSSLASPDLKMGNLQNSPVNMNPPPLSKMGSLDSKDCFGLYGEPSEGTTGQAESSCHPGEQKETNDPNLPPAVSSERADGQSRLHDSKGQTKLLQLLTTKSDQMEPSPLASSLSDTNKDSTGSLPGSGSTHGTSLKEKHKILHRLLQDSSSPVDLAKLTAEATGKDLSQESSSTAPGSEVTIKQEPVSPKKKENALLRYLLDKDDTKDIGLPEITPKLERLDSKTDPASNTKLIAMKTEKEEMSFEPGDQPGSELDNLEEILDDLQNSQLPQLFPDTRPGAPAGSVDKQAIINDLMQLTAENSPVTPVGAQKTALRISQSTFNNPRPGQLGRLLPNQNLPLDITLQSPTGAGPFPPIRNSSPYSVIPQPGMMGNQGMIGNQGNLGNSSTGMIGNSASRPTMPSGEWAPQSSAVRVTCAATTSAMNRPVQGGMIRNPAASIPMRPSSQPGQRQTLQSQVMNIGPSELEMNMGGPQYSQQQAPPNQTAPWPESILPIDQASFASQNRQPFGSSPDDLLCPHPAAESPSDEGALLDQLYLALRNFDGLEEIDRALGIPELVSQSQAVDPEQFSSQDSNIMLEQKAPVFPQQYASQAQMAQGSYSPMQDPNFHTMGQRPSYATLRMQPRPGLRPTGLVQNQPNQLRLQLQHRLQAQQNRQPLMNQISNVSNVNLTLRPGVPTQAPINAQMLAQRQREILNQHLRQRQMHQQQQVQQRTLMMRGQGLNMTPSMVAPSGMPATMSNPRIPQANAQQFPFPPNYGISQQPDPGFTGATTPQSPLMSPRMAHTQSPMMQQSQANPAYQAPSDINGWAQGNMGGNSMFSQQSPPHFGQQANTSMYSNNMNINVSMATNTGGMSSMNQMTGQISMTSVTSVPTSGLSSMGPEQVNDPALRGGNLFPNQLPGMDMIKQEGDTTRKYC
Assay [18] has as its target Peroxisome proliferator-activated receptor gamma/Nuclear receptor coactivator 1 (Homo sapiens, UniProt P37231). It is filed as functional.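 Further: agonist potency as compounds enhance coactivator SRC-1 recruitment to PPARgamma.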
Assay [19] has as its target Peroxisome proliferator-activated receptor gamma/Nuclear receptor coactivator 3 (Homo sapiens, UniProt P37231). It is filed as functional.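 Further: agonist potency for raising coactivator recruitment to the receptor.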
Assay [20] is described as follows: NIH-3T3 fibroblast cytotoxicity, dose response, cytotoxicity control, cell-based, fluorescence, Alamar Blue, secondary assay (AID 2327).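 Further: NIH-3T3 mouse fibroblasts cultured with fluconazole at 8 µg/mL.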 It is filed as functional.
Assay [21] in a line: Luminescence Cell-Based Dose Confirmation HTS to Identify Activators of 5'UTR Stem-Loop Driven Alpha-Synuclein mRNA Translation in H4 Neuroglioblastoma Cells. [Related pubchem assays: 1829 (Project Summary), 1814 (Primary HTS)]. It is filed as functional.
The nature of assay [22]: Luminescence Cell-Based Dose Response HTS to Identify Activators of Luciferase Translation or Activity in H4 […] Cells. [Related pubchem assays: 1829 (Project Summary), 1814 (Primary HTS)]. It is filed as functional.
For assay [23], the target named is T4, Heat shock factor protein 1 (Mus musculus, UniProt P38532).
T4 sequence (P38532 whole entry): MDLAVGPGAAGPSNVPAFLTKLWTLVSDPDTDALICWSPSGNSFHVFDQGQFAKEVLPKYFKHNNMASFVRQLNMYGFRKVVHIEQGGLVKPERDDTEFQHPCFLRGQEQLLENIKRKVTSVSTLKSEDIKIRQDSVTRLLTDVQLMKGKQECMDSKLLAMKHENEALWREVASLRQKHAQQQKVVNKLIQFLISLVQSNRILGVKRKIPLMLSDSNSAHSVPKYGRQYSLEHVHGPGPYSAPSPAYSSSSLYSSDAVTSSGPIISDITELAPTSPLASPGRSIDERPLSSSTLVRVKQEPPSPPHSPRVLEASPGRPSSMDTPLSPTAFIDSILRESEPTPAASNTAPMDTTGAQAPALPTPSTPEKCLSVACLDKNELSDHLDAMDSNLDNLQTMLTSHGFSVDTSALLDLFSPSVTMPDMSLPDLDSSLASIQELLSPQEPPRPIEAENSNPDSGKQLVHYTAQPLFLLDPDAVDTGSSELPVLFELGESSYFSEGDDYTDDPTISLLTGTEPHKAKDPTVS
In words: decrease of HSF1-responsive luciferase luminescence – cell-based, NIH3T3, dose retest, confirmation (AID 2382).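 Further: NIH3T3 fibroblasts with HSF1-driven luciferase reporter stressed by proteasome inhibitor MG132; luminescence from HSF1-driven luciferase expression after 8 hours of MG132 stress.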 It is filed as functional.

Assay [24] in a line: fluconazole-exposed Candida albicans growth modulators – fluorescence, retest, confirmation (AID 2467). It is filed as functional, cell-based.
A short description of assay [25]: M. tuberculosis H37Rv growth inhibitors, H37Rv strain (AID 1626). It is filed as functional.
Assay [26] can be described thus: luciferase reporter signal suppression in cells – H4 neuroglioma cells, luminescence, dose response (AID 1990). It is filed as functional, cell-based.
A short description of assay [27]: Luminescence Cell-Based Dose Response HTS to Identify Inhibitors of 5'UTR Stem-Loop Driven Prion Protein mRNA Translation in H4 Neuroglioblastoma Cells. [Related pubchem assays: 1827 (Project Summary), 1813 (Primary HTS)]. It is filed as functional.
Assay [28] is described as follows: alpha-synuclein stem-loop luciferase translation blockers – H4 neuroglioma cells, luminescence, confirmation (AID 1988). It is filed as functional, cell-based.
Assay [29] can be described thus: Luminescence-based counterscreen assay for KLF5 inhibitors: dose response cell-based high throughput screening assay to identify cytotoxic compounds using the IEC-6 intestinal epithelial cell line. [Related pubchem assays: 1700 (Primary screen.), 1834 (Confirmation screen.), 1858 (Summary AID.), 1905 (Counterscreen.)]. It is filed as functional.
Assay [30] deals with Paired box protein Pax-8 (Homo sapiens, UniProt Q06710). In words: PAX8 transcriptional activity inhibition in RMG-I – RMG-I cells, luciferase, cherry-pick, dose response (AID 687027).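 Further: luciferase reporter driven by Pax8 target thyroperoxidase promoter measured by SteadyGlo luminescence.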 It is filed as functional, cell-based.
A short description of assay [31]: general cell-killing toxicity readout – plate reader, dry powder samples, cytotoxicity control for PAX8 inhibitor project, dose response (AID 743021). It is filed as functional, cell-based.
Assay [32] is described as follows: Luminescence Cell-Based Dose Confirmation HTS to Identify Inhibitors of Polyadenylation. It is filed as functional.

The text below walks through data of ChEMBL document CHEMBL1201862, “PubChem BioAssay data set” (2004).

The source made the active and inactive calls.
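Wherever CC50 is given: cells exposed to compound for 16 hours before readout.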

Glyceraldehyde-3-phosphate dehydrogenase, sequence (P04406 whole entry): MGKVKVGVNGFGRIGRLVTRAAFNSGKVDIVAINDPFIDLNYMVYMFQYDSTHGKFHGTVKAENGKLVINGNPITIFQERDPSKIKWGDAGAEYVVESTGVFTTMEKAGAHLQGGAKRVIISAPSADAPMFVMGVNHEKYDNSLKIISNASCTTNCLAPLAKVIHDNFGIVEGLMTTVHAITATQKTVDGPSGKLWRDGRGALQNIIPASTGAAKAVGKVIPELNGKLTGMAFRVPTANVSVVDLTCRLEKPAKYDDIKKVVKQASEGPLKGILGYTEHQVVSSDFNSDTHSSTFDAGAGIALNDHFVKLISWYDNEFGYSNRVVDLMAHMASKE
Inward rectifier potassium channel 2, sequence (P35561 whole entry): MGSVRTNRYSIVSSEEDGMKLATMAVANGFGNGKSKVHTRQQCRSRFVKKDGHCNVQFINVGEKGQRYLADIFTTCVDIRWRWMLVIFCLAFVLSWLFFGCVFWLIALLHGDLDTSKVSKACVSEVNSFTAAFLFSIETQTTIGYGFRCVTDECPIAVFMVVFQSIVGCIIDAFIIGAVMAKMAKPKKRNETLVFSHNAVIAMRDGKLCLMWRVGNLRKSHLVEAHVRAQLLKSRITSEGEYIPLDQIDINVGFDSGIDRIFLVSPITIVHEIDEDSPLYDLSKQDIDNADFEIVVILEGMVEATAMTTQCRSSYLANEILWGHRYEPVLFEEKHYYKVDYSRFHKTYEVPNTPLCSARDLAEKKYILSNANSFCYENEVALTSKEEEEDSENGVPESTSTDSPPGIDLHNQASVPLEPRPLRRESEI
NS3, sequence (A3EZJ3 whole entry): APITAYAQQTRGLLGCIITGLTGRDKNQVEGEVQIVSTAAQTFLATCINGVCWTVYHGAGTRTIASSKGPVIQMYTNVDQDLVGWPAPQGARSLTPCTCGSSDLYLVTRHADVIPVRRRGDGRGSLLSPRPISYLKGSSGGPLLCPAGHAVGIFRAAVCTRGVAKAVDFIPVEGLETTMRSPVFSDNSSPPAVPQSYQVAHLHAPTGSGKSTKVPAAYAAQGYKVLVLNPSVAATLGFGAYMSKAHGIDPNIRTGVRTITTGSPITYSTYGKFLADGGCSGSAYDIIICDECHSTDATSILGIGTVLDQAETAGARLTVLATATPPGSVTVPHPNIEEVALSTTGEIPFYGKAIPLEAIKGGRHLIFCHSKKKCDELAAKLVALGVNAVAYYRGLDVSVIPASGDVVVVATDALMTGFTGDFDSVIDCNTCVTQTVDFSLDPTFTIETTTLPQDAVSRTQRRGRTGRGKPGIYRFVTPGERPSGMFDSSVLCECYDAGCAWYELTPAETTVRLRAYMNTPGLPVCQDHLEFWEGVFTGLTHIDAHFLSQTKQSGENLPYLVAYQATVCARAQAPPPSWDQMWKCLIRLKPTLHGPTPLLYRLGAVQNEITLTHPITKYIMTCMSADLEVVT

As usually defined, the CC50 is the concentration at which the toxic effect on the cells reaches its halfway point. Read a low CC50 as harm at low concentration. With `CN(C)/C=C1/NC(=S)NC1=O`, the CC50 in [1] was > 99 µM (not active).
As usually defined, the IC50 is the midpoint of a concentration-inhibition curve. With `CCN1CCN(C2=C(Cl)C(=O)N(c3ccc([N+](=O)[O-])cc3)C2=O)CC1`, the 50% inhibitory concentration (IC50) in assay [2] is > 100 µM (not active); in assay [3] it was 0.83 µM (active); in [4] it was 0.565 µM (active).
As to `COc1ccc(CNCc2ccccc2C)cc1`, the half-inhibitory concentration (IC50) in assay [5] is 9.08 µM (active).
`COc1cc(/C=C2\SC(=S)NC2=O)ccc1OS(=O)(=O)c1ccccc1`: the IC50 in assay [6] is 38.6 µM (active); in assay [7] it was 16.5 µM (active); in assay [8], 11.1 µM (not active); in [9], 2.79 µM (active).
As for `Cc1cc(-c2nc3c4c5c(sc4nc(O)n3n2)CCC5)c(C)o1`, the IC50 was 24.8 µM (active) in assay [10], 18.6 µM (not active) in assay [11] and 3.05 µM (active) in [9].
What is called EC50 is the concentration giving half of the maximal effect. `Cc1cc(C(=O)Nc2sc3c(c2C#N)CCC(C)C3)cs1` (stereo not drawn): the EC50 in [12] and in assay [13] was > 20 µM (not active) each time.
`Cc1ccc(C(=O)C2=C(O)C(=O)N(Cc3cccnc3)C2c2cccc(Oc3ccccc3)c2)o1` (stereo not drawn): the 50% inhibitory concentration (IC50) in assay [14] was 5.73 µM (active); in assay [15], 6.11 µM (active); in [16], 2.46 µM (active).
Take `O=C(Nc1nc(-c2ccccc2)nc2ccccc12)c1ccc(F)cc1`: the EC50 in assay [17] is listed as 13.5 µM (not active); in assay [18], 17.2 µM (not active); in assay [19] it was 23 µM (not active).
As for `COc1cc(/C=N/N=C(/Nc2ccc(C)cc2)c2nc3ccccc3s2)ccc1O`, the EC50 in assay [20] was > 150 µM (inactive); in assay [21] it was 17.6 µM (active); in assay [22], 0.154 µM (active); in assay [23], < 0.16 µM (active); in [24], > 38 µM (not active). In addition, in [25], the half-maximal inhibitory concentration (IC50) was > 100 µM (active).
In general, AC50 refers to the concentration giving half of the maximal activity seen. Consider `C/C(=N\NC(=O)c1[nH]nc2c1CCC2)c1cccs1`, for which the EC50 in assay [26] was 4.85 µM (active); in assay [27], 4.49 µM (active); in assay [28], 2.95 µM (active). In addition, in assay [29], the 50% inhibitory concentration (IC50) is given as 10.1 µM (not active). Moreover, the AC50 was 5.19 µM (active) in assay [30] and 8.65 µM (active) in assay [31].
With `C/C(=N\NC(=O)COc1ccc(C)cc1[N+](=O)[O-])c1cccs1`, the EC50 in assay [32] is listed as > 120 µM (not active).
